Laboratory results from US6362369B1, “Phthalic acid diamide derivatives fluorine-containing aniline compounds as starting material, agricultural and horticultural insecticides, and a method for application of the insecticides” (Nihon Nohyaku Co., Ltd., priority 1997, dated 2002).

Legend:
[1] = tested on: diamondback moth (Plutella xylostella); assay: Insecticidal effect on diamondback moth (Test Example 1); assay type: in vivo; details: for Insecticidal effect on diamondback moth (Test Example 1), judged grade: mortality judged according to the criterion shown in Test Example 1; for Insecticidal effect, Test Example 1 / Insecticidal effect (Test Example 1), judged from mortality: diamondback moth; for Insecticidal effect (Test Example 1), judged from mortality: judged by the criterion of Test Example 1
How it was run: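 Read-out was mortality from hatched-insect counts taken 6 days after the egg-bearing cabbage seedling was immersed, graded by set criteria. Seedlings were air-dried and kept at 25° C after treatment. Groups of 10 insects, in triplicate.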

[2] = tested on: rice leafroller (Cnaphalocrocis medinalis); assay: Insecticidal effect on rice leafroller (Test Example 3); assay type: in vivo; details: 500 ppm, 25° C., humidity 70%; for Insecticidal effect on rice leafroller (Test Example 3), judged grade / Insecticidal effect (Test Example 3), judged from mortality: rice lamina dip; for Insecticidal effect on rice leafroller (Test Example 3), judged grade: third-instar larvae; for Insecticidal effect on rice leafroller (Test Example 3), judged grade / Insecticidal effect, Test Example 3: four days after inoculation; for Insecticidal effect, Test Example 3: rice lamina immersed; for Insecticidal effect (Test Example 3), judged from mortality: 4 days after inoculation
Method: Insecticidal effect on rice leafroller (Cnaphalocrocis medinalis)
After air-drying, the lamina was placed in a plastic Petri dish with a diameter of 9 cm whose bottom had been covered with a wetted filter paper. The lamina was inoculated with third-instar larvae of rice leafroller, after which the dish was allowed to stand in a room thermostated at 25° C. and having a humidity of 70%. Four days after the inoculation, the dead and alive were counted and the insecticidal effect was judged according to the criterion shown in Test Example 1. The test was carried out with triplicate groups of 10 insects.

[3] = mortality judged by criterion of Test Example 1
[4] = rice leafroller third-instar larvae
[5] = third-instar larvae of rice leafroller

CC(C)NC(=O)c1c(F)cccc1C(=O)Nc1ccc(SC(F)(F)C(F)F)cc1 [compound 479]
Insecticidal effect on diamondback moth (Test Example 1), judged grade [1]: A (100) | Insecticidal effect on rice leafroller (Test Example 3), judged grade [2]: A (100)

CC(C)NC(=O)c1ccccc1C(=O)Nc1ccc2c(c1)OC(F)(F)O2 [compound 1099]
Insecticidal effect, Test Example 1 [1, 3]: A (100) | Insecticidal effect, Test Example 3 [2, 4]: A (100)

C#CCNC(=O)c1c(I)cccc1C(=O)Nc1ccc(OC(F)F)cc1C [compound 1456]
Insecticidal effect (Test Example 1), judged from mortality [1]: A (100) | Insecticidal effect (Test Example 3), judged from mortality [2, 5]: A (100)

Cc1cc(Cl)ccc1NC(=O)c1cccc(C)c1C(=O)NC(C)C [compound 750]
Insecticidal effect on diamondback moth (Test Example 1), judged grade [1]: A (100) | Insecticidal effect on rice leafroller (Test Example 3), judged grade [2]: A (100)

CC(C)NC(=O)c1cc(Cl)ccc1C(=O)Nc1cccc(C(F)(F)F)c1 [compound 171]
Insecticidal effect, Test Example 1 ([1]; judged by the mortality criterion of Test Example 1): A (100) | Insecticidal effect, Test Example 3 [2, 5]: D (79-50)

CC(C)NC(=O)c1ccccc1C(=O)Nc1ccc2c(c1)OC(F)C(F)(F)O2 (centres unmarked) [compound 1145]
Insecticidal effect, Test Example 1 [1, 3]: A (100) | Insecticidal effect, Test Example 3 [2, 4]: A (100)

CC(C)NC(=O)c1cccc(F)c1C(=O)Nc1ccc(C(F)(F)C(F)(F)F)cc1 [compound 892]
Insecticidal effect on diamondback moth (Test Example 1), judged grade [1]: A (100) | Insecticidal effect on rice leafroller (Test Example 3), judged grade [2]: A (100)

Cc1cc(C(F)(C(F)(F)F)C(F)(F)F)ccc1NC(=O)c1cccc(I)c1C(=O)NCCc1cccnc1 [compound 1770]
Insecticidal effect (Test Example 1), judged from mortality [1]: A (100) | Insecticidal effect (Test Example 3), judged from mortality [2, 5]: A (100)

Cc1cc(OC(F)(F)F)ccc1NC(=O)c1c(I)cccc1C(=O)NC(C)(C)C [compound 958]
Insecticidal effect, Test Example 1 [1, 3]: A (100) | Insecticidal effect, Test Example 3 [2, 4]: A (100)

CCCCc1ccc(NC(=O)c2cccc([N+](=O)[O-])c2C(=O)NC(C)C)cc1 [compound 605]
Insecticidal effect on rice leafroller (Test Example 3), judged grade [2]: C (89-80)

COC(Oc1ccc(NC(=O)c2cccc(Cl)c2C(=O)NC(C)C)c(C)c1)=C(C(F)(F)F)C(F)(F)F [compound 1293]
Insecticidal effect, Test Example 3 [2, 4]: A (100)

Cc1cc(C(F)(F)C(F)(F)F)ccc1NC(=O)c1c(Cl)cccc1C(=O)NCc1ccccc1Cl [compound 1310]
Insecticidal effect, Test Example 3 [2, 4]: B (99-90)

Cc1ccc(C#CC(C)(C)NC(=O)c2c(Cl)cccc2C(=O)Nc2ccc(C(F)(F)C(F)(F)F)cc2C)cc1 [compound 1570]
Insecticidal effect (Test Example 3), judged from mortality [2, 5]: A (100)

Cc1cc(C(F)(F)C(F)(F)F)ccc1NC(=O)c1c(Cl)cccc1C(=O)NCCc1ccc(Cl)cc1 [compound 1361]
Insecticidal effect, Test Example 3 [2, 4]: A (100)

Cc1cc(C(F)(F)C(F)(F)F)ccc1NC(=O)c1c(Cl)cccc1C(=O)NC(C)(C)C#Cc1ccccc1 [compound 1480]
Insecticidal effect (Test Example 3), judged from mortality [2, 5]: A (100)

Cc1cc(C(F)(F)C(F)(F)F)ccc1NC(=O)c1c(I)cccc1C(=O)N(C(C)C)C(C)C [compound 1072]
Insecticidal effect, Test Example 3 [2, 4]: A (100)

CCCCCCNC(=O)c1cccc(I)c1C(=O)Nc1ccc(C(F)(F)C(F)(F)F)cc1C [compound 950]
Insecticidal effect, Test Example 3 [2, 4]: C (89-80)

Cc1cc(OC(F)F)ccc1NC(=O)c1c(C(=O)NC(C)C)cccc1[S+]([O-])CC(F)(F)F (centres unmarked) [compound 800]
Insecticidal effect on rice leafroller (Test Example 3), judged grade [2]: C (89-80)

Cc1c(NC(=O)c2cccc(I)c2C(=O)NC(C)C)ccc(C(F)(F)C(F)(F)F)c1C [compound 1640]
Insecticidal effect (Test Example 3), judged from mortality [2, 5]: A (100)

Cc1cc(OC(F)F)ccc1NC(=O)c1c(SCC(F)(F)F)cccc1C(=O)NC(C)C [compound 798]
Insecticidal effect on rice leafroller (Test Example 3), judged grade [2]: A (100)

CCC(C)CNC(=O)c1cccc(I)c1C(=O)Nc1ccc(C(F)(F)C(F)(F)F)cc1C (centres unmarked) [compound 1027]
Insecticidal effect, Test Example 3 [2, 4]: A (100)

Cc1cc(C(F)(F)C(F)(F)F)ccc1NC(=O)c1c(Cl)cccc1C(=O)NCc1ccc(Cl)cc1Cl [compound 1350]
Insecticidal effect, Test Example 3 [2, 4]: A (100)

Cc1cc(Br)ccc1NC(=O)c1cccc([S+](C)[O-])c1C(=O)NC(C)C (centres unmarked) [compound 790]
Insecticidal effect on rice leafroller (Test Example 3), judged grade [2]: A (100)

Cc1c(Cl)cccc1NC(=O)c1c(C(=O)NC(C)C)cccc1C(F)(F)F [compound 765]
Insecticidal effect on rice leafroller (Test Example 3), judged grade [2]: A (100)

Cc1cc(Cl)ccc1NC(=O)c1cccc(C(F)(F)F)c1C(=O)NC(C)C [compound 758]
Insecticidal effect on rice leafroller (Test Example 3), judged grade [2]: A (100)

Cc1cc(C#CC(C)(C)C)ccc1NC(=O)c1c(I)cccc1C(=O)NC(C)C [compound 1306]
Insecticidal effect, Test Example 3 [2, 4]: A (100)

Cc1cc(C(F)(F)C(F)(F)F)c(C)cc1NC(=O)c1cccc(I)c1C(=O)NC(C)C [compound 1655]
Insecticidal effect (Test Example 3), judged from mortality [2, 5]: A (100)

Cc1cc(C(F)(F)C(F)(F)F)ccc1NC(=O)c1c(Cl)cccc1C(=O)NCc1ccccc1 [compound 1308]
Insecticidal effect, Test Example 3 [2, 4]: C (89-80)

Cc1cc(C(F)(F)C(F)(F)F)ccc1NC(=O)c1c(Cl)cccc1C(=O)NC(CO)c1ccc(Cl)cc1 (centres unmarked) [compound 1416]
Insecticidal effect, Test Example 3 [2, 4]: A (100)

Cc1cc(OC(F)F)ccc1NC(=O)c1cccc(C(F)(F)F)c1C(=O)NC(C)C [compound 759]
Insecticidal effect on rice leafroller (Test Example 3), judged grade [2]: D (79-50)

CC(C)NC(=O)c1cccc(I)c1C(=O)Nc1ccc(OC(F)(F)F)cc1 [compound 418]
Insecticidal effect, Test Example 3 [2, 5]: A (100)

CC(C)NC(=O)c1cccc(I)c1C(=O)Nc1ccc(C(F)(F)F)cc1 [compound 415]
Insecticidal effect, Test Example 3 [2, 5]: A (100)

CC(C)NC(=O)c1cccc(F)c1C(=O)Nc1ccc(C(F)(F)C(F)(F)C(F)(F)C(F)(F)F)cc1 [compound 536]
Insecticidal effect on rice leafroller (Test Example 3), judged grade [2]: A (100)

Cc1cc(OC(F)(F)F)ccc1NC(=O)c1cc(Cl)cc(Cl)c1C(=O)NC(C)C [compound 1224]
Insecticidal effect, Test Example 3 [2, 4]: B (99-90)

Cc1ccc(NC(=O)c2ccccc2C(=O)NC(C)C)c(C)c1 [compound 44]
Insecticidal effect, Test Example 3 [2, 5]: A (100)

Cc1cc(C(F)(F)C(F)(F)F)ccc1NC(=O)c1cc(Cl)cc(Cl)c1C(=O)NC(C)C [compound 1225]
Insecticidal effect, Test Example 3 [2, 4]: A (100)

CCOP(=O)(OCC)c1ccc(NC(=O)c2ccccc2C(=O)NC(C)C)c(C)c1 [compound 81]
Insecticidal effect, Test Example 3 [2, 5]: A (100)

CC(C)NC(=O)c1ccccc1C(=O)Nc1ccc(C(F)(F)C(F)(F)C(F)(F)C(F)(F)F)cc1 [compound 28]
Insecticidal effect, Test Example 3 [2, 5]: A (100)

CCN(CC)C(=O)c1cccc([N+](=O)[O-])c1C(=O)Nc1ccc(Cl)cc1C [compound 1138]
Insecticidal effect, Test Example 3 [2, 4]: A (100)

Cc1cc(C(F)(F)C(F)(F)F)ccc1NC(=O)c1c(I)cccc1C(=O)N1CC(C)CC(C)C1 (centres unmarked) [compound 1140]
Insecticidal effect, Test Example 3 [2, 4]: A (100)

Cc1cc(OC(F)(F)F)ccc1NC(=O)c1c(I)cccc1C(=O)NC(C)(C)CO [compound 1520]
Insecticidal effect (Test Example 3), judged from mortality [2, 5]: A (100)

CC(C)NC(=O)c1c(I)cccc1C(=O)Nc1ccc(OC(F)(F)F)cc1 [compound 352]
Insecticidal effect, Test Example 3 [2, 5]: A (100)

CC(C)NC(=O)c1c(C(=O)Nc2cccc3c2CCC3)cccc1[N+](=O)[O-] [compound 735]
Insecticidal effect on rice leafroller (Test Example 3), judged grade [2]: D (79-50)

Cc1cc(C(F)(C(F)(F)F)C(F)(F)F)ccc1NC(=O)c1cc(Cl)cc(Cl)c1C(=O)NC(C)C [compound 1226]
Insecticidal effect, Test Example 3 [2, 4]: A (100)
